Read-outs that look alike come from different tables or passages of the source.

Data set [1] can be described thus: Stability of the tablet produced according to Example 5 (impurity content on storage). It counts as physicochemical. The settings on record: tablet of Example 5, four days at 70° C., 100 percent relative humidity.
Method: As used herein, the term “stable” with reference to candesartan cilexetil relates to candesartan cilexetil having about 0.01% to about 0.5% of desethyl-candesartan (“desethyl-CNS”) impurity present in the total weight of the composition, after storage for four days at a temperature of 65° C. and a relative humidity of 100 percent; and/or having about 0.01% to about 0.5% of 2-N-ethyl candesartan (“2-N-ethyl CNS”) impurity present in the total weight of the composition, after storage for four days at a temperature of 65° C. and a relative humidity of 100 percent; and/or having about 0.01% to about 0.2% of impurities other than desethyl-CNS and 2-N-ethyl CNS present in the total weight of the composition, after storage for four days at a temperature of 65° C. and a relative humidity of 100 percent.
The conditions of data set [2]: cited from earlier work.

As to `CCOc1nc2cccc(C(=O)OC(C)OC(=O)OC3CCCCC3)c2n1Cc1ccc(-c2ccccc2-c2nnn[nH]2)cc1` (racemic) [candesartan cilexetil, (±)-1-[[(cyclohexyloxy)carbonyl]oxy]ethyl-2-ethoxy-1-[[2′-(1H-tetrazol-5-yl)[1,1′biphenyl]-4-yl]methyl]-1H-benzimidazole-7-carboxylate], the “degradation of candesartan cilexetil when tabletted with the excipient complex (conclusion)” value in data set [1] is on record as “did not degrade significantly”. Besides, the solubility result in data set [2] (in methanol) and in data set [2] (in water) was “sparingly soluble” throughout.

Source of the values: patent US20090018175A1, “Pharmaceutical excipient complex” (priority 2007, published 2009).
